Experimental data published in patent US9629828B2, “Methods of treating traveler's diarrhea and hepatic encephalopathy” (priority 2008, dated 2017).
Values joined by “and” are separate entries in the source; they are usually repeats but may differ in a detail not shown here. Identical values can stand only once. “Also recorded” adds a separate entry of the source. Like-named read-outs stand apart in the source and are kept apart here.

Key:
epithelial cells = assay: Effects of rifaximin on mammalian epithelial cells; assay type: cell-based
CYP3A4 = target: T1, CYP3A4 (Homo sapiens, UniProt P08684); assay: In vitro cytochrome P450 inhibition; assay type: in vitro ADME; settings: 2 to 200 ng/mL
T1 construct: from tissue; host or cells: human liver fractions

clinical = settings: male, human, in vivo
dogs = settings: dog, in vivo
Method: However, plasma drug levels were not measured in these studies. […] The maximum plasma AUC0-8 hr values from the 6 month rat and 9 month dog toxicity studies (range: 42-127 ng·h/mL) was lower than the maximum plasma AUC0-8 hr values in cirrhotic patients (range: 19-306 ng·h/mL).

[1] = tested on: subjects with a history of recurrent, overt, episodic HE; assay: Second study: changes in Conn scores and asterixis grades; assay type: in vivo, human; settings: 266 subjects
[2] = both, human, in vivo
Method: Two studies evaluated the pharmacokinetics of rifaximin in patients with hepatic impairment. […] Because of the limited systemic absorption of rifaximin, no specific dosing adjustments are recommended for patients with hepatic insufficiency.
A pharmacokinetic investigation was performed in subjects with HE in a dose-finding study.

[3] = tested on: subjects in remission from hepatic encephalopathy (HE); assay: First study (3001): time to first breakthrough overt HE episode, rifaximin 550 mg BID vs placebo, 6 months; assay type: in vivo, human
Excerpt: Study 3001 was designed to continuously monitor patients to ensure the validity and completeness of HE breakthrough capture. Following screening, subjects entered a treatment period that included weekly visits and/or phone calls with patients and caregivers. Subjects were followed for the protocol specified 168 days. Complete capture of breakthrough events as well as mortality and provided assurance of the validity of the study outcome. Narratives for each subject experiencing HE breakthrough, AE's resulting in termination, SAEs or death were provided in the NDA.
Eligible subjects had 2 episodes of HE associated with chronic liver disease in the previous 6 months.
Patients had MELD scores of either […] (27%) or 11 to 18 (64%) at baseline. No patients were enrolled with a MELD score of >25. Nine percent of the patients were Child-Pugh Class C. Lactulose was concomitantly used by 91% of the patients in each treatment arm of the study. Per the study protocol, patients were withdrawn from the study after experiencing a breakthrough HE episode.
The primary endpoint was the time to first breakthrough overt HE episode. A breakthrough overt HE episode was defined as a marked deterioration in neurological function and an increase of Conn score to Grade ≧2. In patients with a baseline Conn score of 0, a breakthrough overt HE episode was defined as an increase in Conn score of 1 and asterixis grade of 1.
An efficacy endpoint was the time to first breakthrough overt HE episode. A breakthrough overt HE episode was defined as an increase of Conn score to Grade ≧2 (e.g., 0 or 1 to ≧2) or an increase in Conn and asterixis score of 1 grade each for those subjects who entered the study with a Conn score of 0. Time to breakthrough overt HE episode was the duration from time of first dose of study drug to the first breakthrough overt HE episode. […] Subjects who terminated early for reasons other than breakthrough overt HE were contacted at 6 months from randomization to determine if subjects had experienced a breakthrough overt HE episode or other outcome (e.g., mortality status); and, if the subject had no breakthrough overt HE event prior to contact, he/she was censored at the time of contact. […] Subjects in the study had ≧2 episodes of overt HE equivalent to Conn score ≧2 within 6 months prior to screening (i.e., subjects had documented recurrent, overt HE). At the baseline assessment, subjects were in remission with a Conn score of 0 or 1. A breakthrough overt HE episode, as defined above, was a marked deterioration in neurological function.
Presented herein are the results of the first study and second study. […] The primary efficacy endpoint was the time to breakthrough overt HE. Breakthrough overt HE was defined as an increase of Conn score to Grade ≧2 (e.g., 0 or 1 to ≧2) or an increase in Conn and asterixis score of 1 grade each for those subjects who entered the study with a Conn score of 0. Subjects discontinued from the study at the time of breakthrough overt HE episode. After participation in the first study, subjects had the option to enroll in the open-label, treatment-extension study (the second study).
FIG. 1 illustrates Kaplan-Meier estimates of time to first breakthrough overt HE episode by treatment group in the ITT population. Table 18 presents Kaplan-Meier estimates of the proportions of subjects who experienced breakthrough overt HE over the course of the Treatment Period and results of statistical analyses. […] Subjects who terminated early for reasons other than breakthrough overt HE (e.g., liver transplant, AE, subject request) were contacted at 6 months from date of randomization to determine if subjects had experienced a breakthrough overt HE episode or other outcome (e.g., mortality status). Subjects without breakthrough overt HE were censored at the time of contact or death, whichever was earlier.

patients with HE [4] = assay type: in vivo, human
Excerpt: Total number of hospitalizations, duration of hospitalizations, HE endpoints, and cost of therapy were compared between the 2 treatment regimens.

Shigella flexneri 2a = assay: Open-label Shigella flexneri 2a challenge study; assay type: in vivo, human; settings: 13 treated subjects, 200 mg every 8 hours 3 days
patients with HE [5] = assay: Rifaximin 1200 mg/day: effect on blood ammonia and HE grade (50 patients); assay type: in vivo, human; settings: for effect on HE grade: 1200 mg/day; for effect on blood ammonia: 1200 mg/day for 5-10 days
Excerpt: Correlation between ammonia reduction over time and HE was examined.
While discrete blood ammonia concentrations may be variable, serial measurements in individual patients have been associated with HE severity.

[6] = tested on: Gram-positive and Gram-negative bacteria, such as Escherichia coli; assay: In vitro antibacterial activity / susceptibility (NCCLS agar dilution M7-A6); assay type: cell-based
Method: In vitro susceptibility testing was performed according to the National Committee for Clinical Laboratory Standards (NCCLS) agar dilution method M7-A612.
Methods for dilution antimicrobial susceptibility tests for bacteria that grow aerobically. National Committee for Clinical Laboratory Standards, Sixth Edition, Wayne Pa. Approved Standard NCCLS Document M7-A6 Jan.

cytochrome P450 2D6 = target: T2, cytochrome P450 2D6 (Homo sapiens, UniProt P10635); assay: In vitro cytochrome P450 inhibition; assay type: in vitro ADME; settings: 2 to 200 ng/mL
T2 construct: from tissue; host or cells: human liver fractions
T2 sequence (P10635 whole entry): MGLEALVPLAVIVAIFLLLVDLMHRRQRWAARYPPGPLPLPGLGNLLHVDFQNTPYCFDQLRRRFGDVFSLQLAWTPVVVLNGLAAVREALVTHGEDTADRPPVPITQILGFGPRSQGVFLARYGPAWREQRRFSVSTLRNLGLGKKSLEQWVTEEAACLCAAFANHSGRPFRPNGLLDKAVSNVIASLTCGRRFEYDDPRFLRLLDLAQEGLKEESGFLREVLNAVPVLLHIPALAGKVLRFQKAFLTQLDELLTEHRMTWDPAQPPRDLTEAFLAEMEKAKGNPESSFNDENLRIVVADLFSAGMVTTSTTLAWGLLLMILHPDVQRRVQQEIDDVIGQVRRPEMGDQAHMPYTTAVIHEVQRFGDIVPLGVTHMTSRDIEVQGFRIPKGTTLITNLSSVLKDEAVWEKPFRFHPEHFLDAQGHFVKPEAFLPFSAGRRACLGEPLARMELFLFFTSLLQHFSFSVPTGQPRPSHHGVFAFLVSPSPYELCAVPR

T1 sequence (P08684 whole entry): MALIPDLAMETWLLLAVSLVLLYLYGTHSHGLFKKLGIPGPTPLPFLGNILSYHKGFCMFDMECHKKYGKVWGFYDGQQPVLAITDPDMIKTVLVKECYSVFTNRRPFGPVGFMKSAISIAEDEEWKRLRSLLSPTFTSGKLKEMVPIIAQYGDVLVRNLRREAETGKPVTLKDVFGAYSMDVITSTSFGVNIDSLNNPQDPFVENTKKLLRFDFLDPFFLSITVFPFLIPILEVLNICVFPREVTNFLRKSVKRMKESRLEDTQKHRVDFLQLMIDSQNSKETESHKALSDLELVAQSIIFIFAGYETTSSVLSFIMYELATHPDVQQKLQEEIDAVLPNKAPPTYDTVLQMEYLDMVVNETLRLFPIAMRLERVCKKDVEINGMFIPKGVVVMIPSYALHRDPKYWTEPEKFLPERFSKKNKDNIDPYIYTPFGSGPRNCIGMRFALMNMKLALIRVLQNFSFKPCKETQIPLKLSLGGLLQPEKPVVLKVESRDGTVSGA

CO[C@H]1/C=C/O[C@@]2(C)Oc3c(C)c(O)c4c(O)c(c5c(nc6cc(C)ccn65)c4c3C2=O)NC(=O)/C(C)=C\C=C\[C@H](C)[C@H](O)[C@@H](C)[C@@H](O)[C@@H](C)[C@H](OC(C)=O)[C@@H]1C [rifaximin, (2S,16Z,18E,20S,21S,22R,23R,24R,25 S,26S,27S,28E)-5,6,21,23,25-pentahydroxy-27-methoxy-2,4,11,16,20,22,24,26-octamethyl-2,7-(epoxypentadeca-[1,11,13]trienimino)benzofuro[4,5-e]pyrido[1,2-á]-benzimidazole-1,15(2H)-dione,25-acetate]
effect on epithelial cells (epithelial cells): resistant to bacterial colonization and internalization
inhibition of CYP3A4 (CYP3A4): did not inhibit
AUC(0-t) (clinical): 19.5 ± 16.5 ng·h/mL
Cmax (clinical): 4.3 ± 2.8 ng/mL
Tmax (clinical): 1.25 h
toxic effects (dogs): negligible toxic effects
subjects with worsening asterixis by 1, 2, or 4 grades [1]: 6.8%
mean amount recovered in 24-h urine after last dose [2]: 0.06-0.1 % of dose
administered dose recovered in urine ([2]; 7 days): less than 0.1%
reduction in risk of breakthrough overt HE vs placebo, adjusted for prognostic factors ([3]; 550 mg BID): 60%
reduction in risk of breakthrough overt HE vs placebo ([3]; 550 mg BID, 6-month treatment): 58% and 57.9%
subjects with breakthrough overt HE episodes ([3]; 550 mg BID, 6 months): 22%
subjects with breakthrough overt HE episodes ([3]; 550 mg BID, up to Day 170): 31 of 140
Survival ([3]; N = 140; days: r10 [0-28), r11 [28-56), r12 [56-84), r13 [84-140), r14 [140-168), r15 >=168): 1.0000 and 0.9071 and 0.8783 and 0.8344 and 0.7820 and 0.7740
time to first breakthrough overt HE by region ([3]; North America versus Russia): highly significant protective effect
Survival ([3]; by Baseline MELD Score Level, N = 11, days r10-r15 as E1301): 1.0000 and 0.9091 and 0.6364
Survival ([3]; by Baseline MELD Score Level, N = 85, days r10-r15 as E1201): 1.0000 and 0.9059 and 0.8822 and 0.8459 and 0.7713 and 0.7580
Survival ([3]; by Prior Lactulose Use, N = 123, days r10-r15 as E801): 1.0000 and 0.9024 and 0.8696 and 0.8278 and 0.7678 and 0.7586
Survival ([3]; by Prior Lactulose Use, N = 127, days r11-r21 as E1401): 1.0000 and 0.9055 and 0.8737 and 0.8252 and 0.7754 and 0.7666
patients experiencing a Conn Score of >=2 ([3]; component of breakthrough HE): 20%
patients with worsening of Conn and asterixis grade of 1 each ([3]; component of breakthrough HE): 2%
rate of breakthrough HE episodes adjusted for exposure ([3]; first study rifaximin group): 0.62 events/PEY
patients with zero events over 6 months ([3]; in vivo): 78%
time to breakthrough HE events vs placebo (FIG. 2) ([3]; in vivo): increased time to breakthrough HE events
patients with Conn scores of 3 or 4 (patients with HE [4]; end of treatment period): 6%
days hospitalized (patients with HE [4]; human, in vivo): 2.5 days
hospitalizations due to HE, cost, HE endpoints vs lactulose (patients with HE [4]; human, in vivo): dramatically reduced
patients with asterixis at end of treatment period (patients with HE [4]; human, in vivo): 63%
hospitalizations (patients with HE [4]; rifaximin 400 mg 3 times/day, lactulose 30 mL twice daily): 0.5
rescue treatment with ciprofloxacin (Shigella flexneri 2a): eight subjects received rescue treatment
effect on HE grade (patients with HE [5]): significant improvement in overall HE grade
effect on blood ammonia (patients with HE [5]): statistically significant blood ammonia reduction; also recorded: lowers ammonia levels
effect on blood ammonia (patients with HE [5]; listed as Rifaximin): decreased blood ammonia
effect on HE grade (patients with HE [5]; listed as Rifaximin): improvement in HE grade
in vitro antibacterial activity [6]: active
in vitro antibacterial activity ([6]; listed as Rifaximin): in vitro antimicrobial activity; also recorded: broad spectrum of in vitro antibacterial activity
inhibition of 2D6 (cytochrome P450 2D6): did not inhibit
